The nature of assay [1]: Inhibitory concentration against Nicotinic acetylcholine receptor alpha-6-alpha-3-beta-2; Range is 0.3-1.5 nM. Further details: species or system Homo sapiens.
Assay [2] can be described thus: Inhibitory concentration against Nicotinic acetylcholine receptor alpha 6/alpha-3-beta-4; Range is 0.3-1.5 nM. Further details: species or system Homo sapiens.
The target in assay [3] is T1, Neuronal acetylcholine receptor; alpha2/beta2 (Homo sapiens, UniProt P17787+Q15822). The assay is described as follows: Inhibitory concentration against Nicotinic acetylcholine receptor alpha2-beta2. It counts as protein-complex assay.
T1 sequence (P17787 whole entry): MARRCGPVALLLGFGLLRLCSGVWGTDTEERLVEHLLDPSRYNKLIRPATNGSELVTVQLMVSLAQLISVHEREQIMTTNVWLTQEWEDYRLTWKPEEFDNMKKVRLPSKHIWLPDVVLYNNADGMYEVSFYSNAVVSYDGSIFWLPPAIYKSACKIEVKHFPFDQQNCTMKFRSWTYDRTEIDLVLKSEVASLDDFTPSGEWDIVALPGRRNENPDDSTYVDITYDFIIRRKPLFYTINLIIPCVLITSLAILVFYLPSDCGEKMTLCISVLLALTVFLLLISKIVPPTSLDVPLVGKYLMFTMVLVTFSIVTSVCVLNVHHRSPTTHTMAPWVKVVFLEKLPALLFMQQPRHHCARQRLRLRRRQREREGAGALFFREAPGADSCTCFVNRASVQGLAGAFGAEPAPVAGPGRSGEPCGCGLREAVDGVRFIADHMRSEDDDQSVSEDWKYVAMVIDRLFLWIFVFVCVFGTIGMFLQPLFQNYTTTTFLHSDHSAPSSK
T1 sequence (Q15822 whole entry): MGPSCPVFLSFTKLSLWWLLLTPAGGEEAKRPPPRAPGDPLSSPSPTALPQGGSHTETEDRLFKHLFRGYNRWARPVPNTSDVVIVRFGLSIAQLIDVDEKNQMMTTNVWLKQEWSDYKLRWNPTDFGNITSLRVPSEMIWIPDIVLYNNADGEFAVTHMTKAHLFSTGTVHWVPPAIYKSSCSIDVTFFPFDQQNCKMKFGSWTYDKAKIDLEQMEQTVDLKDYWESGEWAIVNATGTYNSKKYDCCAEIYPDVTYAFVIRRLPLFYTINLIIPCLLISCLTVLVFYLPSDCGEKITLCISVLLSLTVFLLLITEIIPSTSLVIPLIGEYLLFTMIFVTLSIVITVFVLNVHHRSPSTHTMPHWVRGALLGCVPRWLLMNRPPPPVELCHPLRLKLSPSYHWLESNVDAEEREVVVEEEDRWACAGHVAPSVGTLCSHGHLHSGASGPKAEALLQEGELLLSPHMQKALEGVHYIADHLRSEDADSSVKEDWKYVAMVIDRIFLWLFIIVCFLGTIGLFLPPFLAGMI
The target in assay [4] is T2, Neuronal acetylcholine receptor; alpha3/beta2 (Homo sapiens, UniProt P17787+P32297). Put plainly: Inhibitory concentration against Nicotinic acetylcholine receptor alpha3-beta2. The assay is classed as protein-complex assay.
T2 sequence (P17787 whole entry): as the sequence (P17787 whole entry) above
T2 sequence (P32297 whole entry): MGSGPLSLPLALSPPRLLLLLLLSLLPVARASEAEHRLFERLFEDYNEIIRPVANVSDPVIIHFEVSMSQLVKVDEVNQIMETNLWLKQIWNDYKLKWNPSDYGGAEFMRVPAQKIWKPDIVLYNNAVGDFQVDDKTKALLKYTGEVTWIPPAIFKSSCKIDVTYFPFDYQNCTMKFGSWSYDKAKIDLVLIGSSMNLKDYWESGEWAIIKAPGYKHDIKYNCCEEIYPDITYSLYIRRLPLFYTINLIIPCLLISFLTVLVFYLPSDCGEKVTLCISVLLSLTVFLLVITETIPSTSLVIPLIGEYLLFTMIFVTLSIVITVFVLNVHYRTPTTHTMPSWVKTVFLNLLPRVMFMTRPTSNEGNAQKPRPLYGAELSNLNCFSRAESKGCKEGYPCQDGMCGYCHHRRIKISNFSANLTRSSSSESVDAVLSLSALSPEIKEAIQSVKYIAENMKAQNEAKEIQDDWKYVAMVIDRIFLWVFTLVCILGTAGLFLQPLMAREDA
Assay [5] concerns the target T3, Neuronal acetylcholine receptor subunit alpha-7 (Homo sapiens, UniProt P36544). The assay is described as follows: Inhibitory concentration against Nicotinic acetylcholine receptor alpha 7.
For assay [6], the target named is T4, Neuronal acetylcholine receptor; alpha4/beta2 (Homo sapiens, UniProt P17787+P43681). Put plainly: Inhibitory concentration against Nicotinic acetylcholine receptor alpha4-beta2. It counts as protein-complex assay.
T4 sequence (P17787 whole entry): as the sequence (P17787 whole entry) above
T4 sequence (P43681 whole entry): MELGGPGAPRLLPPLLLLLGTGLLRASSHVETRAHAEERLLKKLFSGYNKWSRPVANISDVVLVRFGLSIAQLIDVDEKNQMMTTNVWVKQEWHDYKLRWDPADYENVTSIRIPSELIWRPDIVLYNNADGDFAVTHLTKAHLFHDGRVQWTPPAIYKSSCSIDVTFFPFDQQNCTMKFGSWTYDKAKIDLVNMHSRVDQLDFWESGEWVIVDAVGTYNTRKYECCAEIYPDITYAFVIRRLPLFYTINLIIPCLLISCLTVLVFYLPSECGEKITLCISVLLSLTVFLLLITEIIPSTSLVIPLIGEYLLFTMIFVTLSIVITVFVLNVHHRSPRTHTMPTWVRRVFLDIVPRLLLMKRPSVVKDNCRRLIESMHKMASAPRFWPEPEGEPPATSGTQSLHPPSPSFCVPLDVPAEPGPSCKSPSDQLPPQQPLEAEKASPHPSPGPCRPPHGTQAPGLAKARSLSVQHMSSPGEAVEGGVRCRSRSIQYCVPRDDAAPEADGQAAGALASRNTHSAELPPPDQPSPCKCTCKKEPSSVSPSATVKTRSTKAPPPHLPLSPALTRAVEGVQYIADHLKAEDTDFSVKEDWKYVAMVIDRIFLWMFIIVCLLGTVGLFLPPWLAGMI
A short description of assay [7]: Inhibitory concentration against Nicotinic acetylcholine receptor alpha6-beta4; Range is 0.7-1 nM. Further details: species or system Homo sapiens.
Assay [8] can be described thus: Inhibitory concentration against Nicotinic acetylcholine receptor alpha-6-alpha-3-beta-2; Range is 0.7-1 nM. Further details: species or system Homo sapiens.
The target in assay [9] is T5, Neuronal acetylcholine receptor; alpha3/beta4 (Homo sapiens, UniProt P30926+P32297). The assay is described as follows: Inhibitory concentration against Nicotinic acetylcholine receptor alpha3-beta4; Range is 100-200 nM. The assay is classed as protein-complex assay.
T5 sequence (P30926 whole entry): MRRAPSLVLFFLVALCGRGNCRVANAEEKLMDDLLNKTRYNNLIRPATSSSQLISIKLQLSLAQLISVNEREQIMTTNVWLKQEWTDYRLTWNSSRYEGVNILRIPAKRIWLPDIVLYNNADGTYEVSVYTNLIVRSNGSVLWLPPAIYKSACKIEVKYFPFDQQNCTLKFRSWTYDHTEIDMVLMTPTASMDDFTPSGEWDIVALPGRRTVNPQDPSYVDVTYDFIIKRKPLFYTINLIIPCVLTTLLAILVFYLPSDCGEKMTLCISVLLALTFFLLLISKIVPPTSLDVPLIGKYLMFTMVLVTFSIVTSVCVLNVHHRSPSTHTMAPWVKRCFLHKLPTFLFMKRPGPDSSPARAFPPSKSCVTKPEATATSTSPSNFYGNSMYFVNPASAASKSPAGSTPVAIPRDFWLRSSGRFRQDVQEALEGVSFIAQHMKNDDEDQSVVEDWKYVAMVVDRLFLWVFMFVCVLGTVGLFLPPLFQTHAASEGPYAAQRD
T5 sequence (P32297 whole entry): as the sequence (P32297 whole entry) above
Assay [10] deals with Neuronal acetylcholine receptor subunit alpha-9 (Homo sapiens, UniProt Q9UGM1). Put plainly: Inhibitory concentration against Nicotinic acetylcholine receptor alpha9; Range is 100-200 nM.
For assay [11], the target named is T3, Neuronal acetylcholine receptor subunit alpha-7. Put plainly: Inhibitory concentration against Nicotinic acetylcholine receptor alpha7; Range is 100-200 nM.
In assay [12] the target is Neuronal acetylcholine receptor; alpha3/alpha6/beta2/beta3 (Homo sapiens, UniProt P17787+P32297+Q05901+Q15825). Put plainly: Inhibitory concentration against Nicotinic acetylcholine receptor alpha-6-alpha-3-beta-2-beta-3; Range is 0.7-1 nM. The assay is classed as protein-complex assay.
The target of assay [13] is T5, Neuronal acetylcholine receptor; alpha3/beta4. Put plainly: Inhibitory concentration against Nicotinic acetylcholine receptor alpha3-beta4; Range is 0.7-1 nM. The assay is classed as protein-complex assay.
Assay [14] concerns the target T2, Neuronal acetylcholine receptor; alpha3/beta2. The assay is described as follows: Inhibitory concentration against Nicotinic acetylcholine receptor alpha3-beta2; Range is 0.3-1.5 nM. It counts as protein-complex assay.
For assay [15], the target named is T4, Neuronal acetylcholine receptor; alpha4/beta2. The assay is described as follows: Inhibitory concentration against Nicotinic acetylcholine receptor alpha4-beta2; Range is 0.3-1.5 nM. It counts as protein-complex assay.
The target in assay [16] is Neuronal acetylcholine receptor; alpha4/beta4 (Homo sapiens, UniProt P30926+P43681). The assay is described as follows: Inhibitory concentration against Nicotinic acetylcholine receptor alpha4-beta4; Range is 0.3-1.5 nM. The assay is classed as protein-complex assay.
Assay [17] concerns the target T1, Neuronal acetylcholine receptor; alpha2/beta2. The assay is described as follows: Inhibitory concentration against Nicotinic acetylcholine receptor alpha2-beta2; Range is 0.3-1.5 nM. The assay is classed as protein-complex assay.
Assay [18] addresses T3, Neuronal acetylcholine receptor subunit alpha-7. The assay is described as follows: Inhibitory concentration against Nicotinic acetylcholine receptor alpha7; Range is 0.3-1.5 nM.
Assay [19] deals with T5, Neuronal acetylcholine receptor; alpha3/beta4. The assay is described as follows: Inhibitory concentration against Nicotinic acetylcholine receptor alpha3-beta4; Range is 0.3-1.5 nM. The assay is classed as protein-complex assay.
Assay [20] addresses Neuronal acetylcholine receptor; alpha2/beta4 (Homo sapiens, UniProt P30926+Q15822). The assay is described as follows: Inhibitory concentration against Nicotinic acetylcholine receptor alpha2-beta4; Range is 0.3-1.5 nM. It counts as protein-complex assay.
Assay [21] deals with T4, Neuronal acetylcholine receptor; alpha4/beta2. Put plainly: Inhibitory concentration against Nicotinic acetylcholine receptor alpha4-beta2; Range is 0.5-8 nM. The assay is classed as protein-complex assay.
In assay [22] the target is T3, Neuronal acetylcholine receptor subunit alpha-7. The assay is described as follows: Inhibitory concentration against Nicotinic acetylcholine receptor alpha7; Range is 0.5-8 nM.
Assay [23] addresses T2, Neuronal acetylcholine receptor; alpha3/beta2. Put plainly: Inhibitory concentration against Nicotinic acetylcholine receptor alpha3-beta2; Range is 0.5-8 nM. The assay is classed as protein-complex assay.
Assay [24] in a line: Inhibitory concentration against Nicotinic acetylcholine receptor alpha-6-alpha-3-beta-2; Range is 0.5-8 nM. The arrangement: species or system Homo sapiens.
A short description of assay [25]: Inhibitory concentration against Nicotinic acetylcholine receptor alpha-6-alpha-4-beta-4; Range is 0.7-1 nM.

Structures are written as SMILES. Peptide text beside a SMILES is read from it.

T3 sequence (P36544 whole entry): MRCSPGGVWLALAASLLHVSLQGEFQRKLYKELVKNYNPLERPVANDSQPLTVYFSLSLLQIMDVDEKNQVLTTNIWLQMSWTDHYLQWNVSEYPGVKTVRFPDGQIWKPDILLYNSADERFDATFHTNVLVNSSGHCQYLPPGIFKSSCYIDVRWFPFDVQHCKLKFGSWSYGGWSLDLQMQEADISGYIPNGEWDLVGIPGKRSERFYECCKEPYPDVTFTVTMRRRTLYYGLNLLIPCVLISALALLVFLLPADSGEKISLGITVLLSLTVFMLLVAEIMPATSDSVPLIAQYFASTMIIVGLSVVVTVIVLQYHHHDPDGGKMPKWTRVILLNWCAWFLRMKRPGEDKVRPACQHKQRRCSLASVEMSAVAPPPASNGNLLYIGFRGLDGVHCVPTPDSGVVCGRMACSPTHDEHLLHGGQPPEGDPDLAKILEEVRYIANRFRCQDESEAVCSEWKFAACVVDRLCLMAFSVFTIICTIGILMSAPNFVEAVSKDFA

In general, IC50 refers to the point on the concentration scale where inhibition reaches its midpoint. Higher therefore signals weaker potency in that assay. `CC(C)C[C@H](NC(=O)[C@@H](NC(=O)[C@H](C)NC(=O)[C@H](CS)NC(=O)[C@@H]1CCCN1C(=O)[C@@H]1CCCN1C(=O)[C@@H](NC(=O)[C@H](CO)NC(=O)[C@H](CS)NC(=O)[C@H](CS)NC(=O)CN)[C@@H](C)O)C(C)C)C(=O)N[C@@H](Cc1ccc(O)cc1)C(=O)N[C@@H](CS)C(=O)NCC(=O)N[C@@H](CCCN=C(N)N)C(=O)N[C@@H](CCCN=C(N)N)C(=O)N[C@H](C=O)CCCN=C(N)N` (H-GCCSTPPCAVLYCGRRR-aldehyde): the IC50 in assay [1] and in [2] was 1.5 nM in each case.

For the compound `CC(C)C[C@H](NC(=O)[C@H](CO)NC(=O)[C@H](CS)NC(=O)[C@H](CS)NC(=O)CN)C(=O)N1CCC[C@H]1C(=O)N1CCC[C@H]1C(=O)N[C@@H](CS)C(=O)N[C@@H](C)C(=O)N[C@@H](C)C(=O)N[C@@H](CC(N)=O)C(=O)N[C@@H](CC(N)=O)C(=O)N1CCC[C@H]1C(=O)N[C@@H](CC(=O)O)C(=O)N[C@@H](Cc1ccc(O)cc1)C(=O)N[C@@H](CS)C(N)=O` (H-GCCSLPPCAANNPDYC-NH2), the IC50 in [3], in assay [4], in assay [5] and in assay [6] was 9.6 nM each time.

Consider `CC[C@H](C)[C@H](NC(=O)[C@H](CCC(N)=O)NC(=O)[C@@H]1CCCN1C(=O)[C@H](CC(N)=O)NC(=O)[C@H](Cc1c[nH]cn1)NC(=O)[C@@H](NC(=O)[C@@H](NC(=O)[C@H](CS)NC(=O)[C@@H](NC(=O)[C@@H]1CCCN1C(=O)[C@H](CC(N)=O)NC(=O)[C@H](CO)NC(=O)[C@H](CS)NC(=O)[C@H](CS)NC(=O)[C@@H]1CCCN1C(=O)[C@@H](N)CC(=O)O)C(C)C)[C@@H](C)O)C(C)C)C(=O)N[C@@H](CS)C(N)=O` (H-DPCCSNPVCTVHNPQIC-NH2), for which the IC50 in assay [7] and in assay [8] was 1 nM each time.

`C[C@H](NC(=O)[C@H](CS)NC(=O)[C@H](CCCN=C(N)N)NC(=O)[C@@H]1CCCN1C(=O)[C@H](CC(=O)O)NC(=O)[C@H](CO)NC(=O)[C@H](CS)NC(=O)[C@H](CS)NC(=O)CN)C(=O)N[C@@H](Cc1c[nH]c2ccccc12)C(=O)N[C@@H](CCCN=C(N)N)C(N)=O` (H-GCCSDPRCAWR-NH2): the IC50 in assay [9], in assay [10] and in assay [11] was 200 nM throughout.

On to `CC[C@H](C)[C@H](NC(=O)[C@H](CCC(N)=O)NC(=O)[C@@H]1CCCN1C(=O)[C@H](CC(N)=O)NC(=O)[C@H](Cc1cnc[nH]1)NC(=O)[C@@H](NC(=O)[C@@H](NC(=O)[C@H](CS)NC(=O)[C@@H](NC(=O)[C@@H]1CCCN1C(=O)[C@H](CC(N)=O)NC(=O)[C@H](CO)NC(=O)[C@H](CS)NC(=O)[C@H](CS)NC(=O)[C@@H]1CCCN1C(=O)[C@@H](N)CC(=O)O)C(C)C)[C@@H](C)O)C(C)C)C(=O)N[C@@H](CS)C(N)=O` (H-DPCCSNPVCTVHNPQIC-NH2), for which the IC50 in [12] and in assay [13] was 1 nM throughout.

Consider `CC(C)C[C@H](NC(=O)[C@@H](NC(=O)[C@H](C)NC(=O)[C@H](CS)NC(=O)[C@@H]1CCCN1C(=O)[C@@H]1CCCN1C(=O)[C@@H](NC(=O)[C@H](CO)NC(=O)[C@H](CS)NC(=O)[C@H](CS)NC(=O)CN)[C@@H](C)O)C(C)C)C(=O)N[C@@H](Cc1ccc(O)cc1)C(=O)N[C@@H](CS)C(=O)NCC(=O)N[C@@H](CCCNC(=N)N)C(=O)N[C@@H](CCCNC(=N)N)C(=O)N[C@H](C=O)CCCNC(=N)N` (H-GCCSTPPCAVLYCGRRR-aldehyde), for which the IC50 in assay [14], in assay [15], in [16], in [17], in assay [18] and in assay [19] was 1.5 nM in each case. In [20], the IC50 was 1.5 nM.

Turning to `CC(C)C[C@H](NC(=O)[C@H](CC(N)=O)NC(=O)[C@H](CO)NC(=O)[C@H](Cc1c[nH]cn1)NC(=O)[C@H](CCC(=O)O)NC(=O)[C@H](CC(C)C)NC(=O)[C@H](Cc1c[nH]cn1)NC(=O)[C@H](CS)NC(=O)[C@@H](NC(=O)[C@@H]1CCCN1C(=O)[C@H](CC(N)=O)NC(=O)[C@H](CO)NC(=O)[C@H](CS)NC(=O)[C@H](CS)NC(=O)CN)C(C)C)C(=O)N[C@@H](CS)C(N)=O`, the IC50 in [21], in [22], in assay [23], in assay [24] and in assay [25] was 8 nM in each case.
